Common to all, as to assay: NCI anticancer screen, dose series, 48 h
Assay [1] relates to COLO 205 colon.
For assay [2], the system named is EKVX NSCLC.
In assay [3] the test system is HCT-15 colon.
Assay [4] concerns OVCAR-8 ovarian.
Assay [5] deals with RPMI-8226 leukemia.
In assay [6] the test system is SK-OV-3 ovarian.
The subject of assay [7] is SN12C renal.
Assay [8] has as its system SNB-75 CNS.
Assay [9] deals with U251 CNS.
Assay [10] concerns UO-31 renal.

From PubChem BioAssay (NCI) come the findings set out here.

Several values for one entry are separate records, joined by “and”; a condition that tells them apart may be missing. Equal entries are not always repeated.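 Cultured in 96-well plates, cells were exposed to test compound for 48 hours across five concentrations. At the GI50, growth is halved. TGI marks complete inhibition of growth.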 Where a SMILES comes first, the peptide text is derived from it. [ ]: non-standard residue; d: D form. Phe(4-Cl) = N[CH](Cc1ccc(Cl)cc1)C(=O)O

For the molecule `CCN(CC)c1ccc(C(=N)c2ccc(N(CC)CC)cc2)cc1`, the GI50 in assay [1] was 0.361 µM; in assay [2], 0.868 µM; in [3], 0.416 µM; in assay [4] it was 0.905 µM; in assay [5], 0.358 µM; in assay [6], 0.854 µM. Besides, the GI50 in assay [7] was 1.34 µM; in assay [8], 0.849 µM; in assay [9] it was 0.542 µM; in [10] it was 0.557 µM. In addition, the TGI in [1] amounted to 1.32 µM; in assay [2], 11.8 µM; in assay [3] it was 2.28 µM; in assay [4] it was 3.75 µM; in [5] it was 2.42 µM; in assay [6] it was 2.89 µM. Further, the TGI in [7] came out at 5.82 µM; in assay [8], 6.89 µM; in assay [9] it was 2.16 µM; in assay [10] it was 2.64 µM.
With `CCCCN=C(N)c1ccc(OCCSCCOc2ccc(C(N)=NCCCC)cc2)cc1`, the GI50 is 3.1 µM in assay [1]; 0.96 µM in assay [2]; over 100 µM in assay [3]; 10.5 µM in assay [4]; 2.71 µM in assay [5]; 2.54 µM in [6]. The GI50 was 1.76 µM in [7], 1.09 µM in assay [8], 1.6 µM in [9] and over 100 µM in [10]. Further, the TGI was 15 µM in assay [1]; over 100 µM in assay [2]; over 100 µM in assay [3]; over 100 µM in assay [4]; 53.4 µM in assay [5]; over 100 µM in [6]. The TGI was over 100 µM in assay [7], 16.2 µM in assay [8], over 100 µM in [9] and over 100 µM in [10].
For `COc1ccc(-c2cn3ccsc3n2)cc1`, the TGI was over 100 µM in assay [1]; over 100 µM in assay [2]; over 100 µM in assay [3]; over 100 µM in assay [4]; 54.6 µM in assay [5]; over 100 µM in assay [6]. Further, the TGI in assay [7], in assay [8], in assay [9] and in assay [10] was over 100 µM throughout.
Regarding `O=C(c1cccc(O)c1O)c1cn(Cc2ccc(F)cc2)c2cccc(O)c12`, the GI50 was 2.77 µM in assay [1]; 9.3 µM in assay [2]; 1.16 µM in assay [3]; 3.56 µM in assay [4]; 0.564 µM in [5]; 4.49 µM in assay [6]. In addition, the GI50 was 6.37 µM in [7], 2.49 µM in [8], 2.95 µM in [9] and 1.14 µM in assay [10]. Further, the TGI in assay [1] is 10.7 µM; in assay [2], over 54.4 µM; in [3], 14.8 µM; in assay [4], 18.9 µM; in assay [5] it was 6.99 µM; in assay [6] it was 16 µM. Further, the TGI in assay [7] came out at 21.7 µM; in assay [8], 12 µM; in assay [9], 15.2 µM; in [10], 5.24 µM.
With `O=C(O)CC1OCC=C2CN3CCC45c6ccccc6NC4C1C2CC35` (stereo not given), the TGI in [1], in assay [2], in [3], in assay [4], in assay [5] and in assay [6] was over 100 µM in each case. For the same molecule, the TGI in assay [7], in assay [8], in [9] and in [10] was over 100 µM throughout.
On to `CCOC(=O)c1c(CN2CCN(c3ccccc3)CC2)n(-c2ccccc2)c2cc(Br)c(O)cc12`, for which the GI50 in assay [1] is 21.3 µM; in [2] it was 11.2 µM; in assay [3], 11.3 µM; in assay [4] it was 9.32 µM; in assay [5], 3.61 µM; in assay [6], 34 µM. Moreover, the GI50 in assay [7] is 5.68 µM; in [8], 17.7 µM; in assay [9] it was 6.43 µM; in assay [10], 8.99 µM. The TGI is 41.7 µM in assay [1]; 36.1 µM in [2]; 38.6 µM in assay [3]; 57 µM in [4]; over 100 µM in assay [5]; 80.9 µM in assay [6]. Besides, the TGI in [7] came out at 18.5 µM; in assay [8], 90.5 µM; in assay [9] it was 19 µM; in assay [10] it was 23.1 µM.
With `Cc1ccc(S(=O)(=O)n2c(-c3ccccc3)c(-c3ccccc3)c3ccccc32)cc1`, the TGI in assay [1], in [2], in [3], in assay [4], in assay [5] and in assay [6] was over 100 µM throughout. For the same molecule, the TGI in assay [7], in assay [8], in assay [9] and in assay [10] was over 100 µM each time.
`COc1ccc(C(C)c2cc3c(cc2OC)OCO3)cc1` (stereo not given): the TGI in assay [1] was 0.927 µM; in [2], over 100 µM; in assay [3], 13.5 µM; in assay [4] it was 17.1 µM; in assay [5] it was over 48.6 µM; in assay [6], 27 µM. Also, the TGI in [7] is 43.5 µM; in assay [8] it was over 100 µM; in [9] it was over 100 µM; in assay [10], over 100 µM.
In the case of `COc1cc(OC(=O)c2c(O)cc(O)c(O)c2C)cc(C)c1C(=O)Oc1cc(C)c(C(=O)O)c(O)c1`, the TGI in [1], in assay [2], in [3], in assay [4], in assay [5] and in assay [6] was over 100 µM in each case. Further, the TGI in [7], in assay [8], in [9] and in assay [10] was over 100 µM each time.
With `N#Cc1nc(C2OC(COC(=O)c3ccccc3)C(OC(=O)c3ccccc3)C2OC(=O)c2ccccc2)oc1N` (stereo not given), the TGI was over 100 µM in [1]; over 100 µM in [2]; over 100 µM in [3]; over 100 µM in assay [4]; 5.63 µM in assay [5]; over 100 µM in assay [6]. The TGI was over 100 µM in assay [7], over 100 µM in assay [8], over 100 µM in [9] and 66.8 µM in [10].
As to `CCS(=O)(=O)c1ccc(OC)c(Nc2ncc(-c3cccc(C(C)=O)c3)o2)c1`, the GI50 in [1] is over 25 µM; in assay [2], over 25 µM; in assay [3], over 25 µM; in assay [4], over 25 µM; in assay [5] it was over 25 µM; in assay [6], 21.5 µM. Further, the GI50 in [7] is 14 µM; in [8], 2.73 µM; in assay [9], 19.7 µM; in assay [10] it was 5.86 µM. For the same molecule, the TGI in assay [1], in assay [2], in assay [3], in assay [4], in assay [5] and in assay [6] was over 25 µM each time. For the same molecule, the TGI in assay [7] is over 25 µM; in assay [8], 23 µM; in [9] it was over 25 µM; in assay [10], over 25 µM.
Turning to `CC(=O)OC[C@]12CC[C@H]3[C@@H](C[C@H]4O[C@]45[C@@H](O)C=CC(=O)[C@]35C)[C@@H]1CC[C@@H]2[C@H](C)[C@H]1CC(C)=C(C)C(=O)O1`, the GI50 was 0.348 µM and 0.31 µM in assay [1]; 0.601 µM and 0.753 µM in assay [2]; 0.294 µM and 0.177 µM in assay [3]; 0.331 µM and 0.285 µM in [4]; 0.26 µM and 0.107 µM in assay [5]; 2.78 µM in assay [6]. Further, the GI50 in [7] is 0.401 µM and 0.322 µM; in assay [8] it was 0.261 µM and 0.264 µM; in assay [9], 0.688 µM and 0.742 µM; in assay [10] it was 0.84 µM and 0.776 µM. In addition, the TGI was 0.91 µM in assay [1]; 1.94 µM in assay [2]; 0.751 µM and 0.371 µM in assay [3]; 0.899 µM in assay [4]; 0.846 µM and 0.446 µM in [5]; 5.98 µM in [6]. In addition, the TGI in assay [7] is 0.943 µM and 1.16 µM; in assay [8], 0.953 µM and 1.25 µM; in [9], 0.91 µM and 1.95 µM; in assay [10], 2 µM.
`CN/N=C(/CCN1CCCC1)CC(c1ccccc1)c1c(O)c2ccccc2oc1=O` (stereo not given): the TGI in assay [1] was over 91.4 µM; in assay [2], over 100 µM; in assay [3], over 100 µM; in assay [4] it was over 100 µM; in assay [5], over 31.6 µM; in assay [6], over 100 µM. The TGI was over 100 µM in assay [7], over 31.6 µM in assay [8], over 100 µM in assay [9] and over 100 µM in assay [10].
With `COc1ccc(C(=O)c2cc(C)c(OC)c(C)c2)c(OC)c1N(C(=O)C(Cl)Cl)C(=O)C(Cl)Cl`, the GI50 is 0.156 µM in assay [1]; 0.0735 µM in [2]; 0.0617 µM in assay [3]; 0.0558 µM in assay [4]; 0.0794 µM in assay [5]; 0.052 µM in assay [6]. Besides, the GI50 is 0.0727 µM in assay [7], 0.0283 µM in [8], 0.0553 µM in [9] and 0.0736 µM in assay [10]. Further, the TGI is 4.14 µM in [1]; over 100 µM in assay [2]; over 100 µM in [3]; over 100 µM in assay [4]; 20.8 µM in assay [5]; over 100 µM in assay [6]. Besides, the TGI is over 100 µM in [7], over 100 µM in [8], over 100 µM in [9] and over 47.5 µM in assay [10].
Turning to `CC(O)C(NC(=O)C(Cc1ccccc1)NC(=O)C(NC(=O)C(CCCCN)NC(=O)C(Cc1c[nH]c2ccccc12)NC(=O)C(Cc1ccc(O)cc1)NC(=O)C(Cc1ccc(Cl)cc1)NC(=O)C(N)Cc1ccccc1)C(C)O)C(N)=O` (stereo not given) (H-F[Phe(4-Cl)]YWKTFT-NH2; configuration not given here), the TGI in [1] stood at 51.7 µM; in assay [2], 32.2 µM; in assay [3] it was 41.5 µM; in assay [4], 67.5 µM; in [5], 33.5 µM; in [6] it was 46.4 µM. Besides, the TGI in assay [7] was over 100 µM; in assay [8] it was 37.4 µM; in assay [9], 35.8 µM; in assay [10], 37.5 µM.
Consider `CC(C)c1ccc(C(=O)Nc2sc3c(c2C(N)=O)CCC(=O)C3)cc1`, for which the GI50 is 0.564 µM in assay [1]; 1.78 µM in assay [2]; 0.387 µM in assay [3]; 0.71 µM in [4]; 0.127 µM in [5]; 2.62 µM in assay [6]. For the same molecule, the GI50 in assay [7] was 0.515 µM; in assay [8], 0.795 µM; in [9] it was 0.399 µM; in [10] it was 0.267 µM. Further, the TGI amounted to 1.9 µM in [1]; 5.34 µM in [2]; 2.12 µM in assay [3]; 13.3 µM in assay [4]; 0.691 µM in [5]; 8.02 µM in assay [6]. For the same molecule, the TGI in [7] was determined as 2.35 µM; in assay [8], 2.65 µM; in assay [9], 1.9 µM; in [10] it was 1.1 µM.
